In publication PMC8639922, “KSHV transactivator-derived small peptide traps coactivators to attenuate MYC and inhibits leukemia and lymphoma cell growth” (Communications Biology, 2021):
Several values for one entry are separate records, joined by “and”; a condition that tells them apart may be missing. Identical values can stand only once. Square brackets hold non-standard residues; d marks the D form. Peptide text beside a SMILES is read from it. Orn = NCCC[C@H](N)C(=O)O; βAla = NCCC(=O)O

Columns and labels:
[1] = tested on: KSHV lytic gene expression in TREx-K-Rta BCBL-1 cells; experiment: KSHV genome-wide qRT-PCR array; type: cell-based; settings: D
Experimental: (§1) Because VGN50 is derived from the KSHV transactivator sequence, we next examined if VGN50 can inhibit KSHV lytic replication by competitively blocking the coactivator binding to K-Rta. To study this, we used the TREx-K-Rta BCBL-1 cell line, in which we can trigger the expression of exogenous Flag-tagged K-Rta in a doxycycline (Dox) inducible manner. TREx-K-Rta BCBL-1 cells were treated with […] VGN50 or mutant peptide, with or without Dox induction. We used approximately one-half of the IC50 concentration of VGN50 to treat the TREx-K-Rta BCBL-1 cells in order to avoid cell toxicity effects that would non-specifically decrease viral gene expression. KSHV gene expression was profiled with a KSHV genome-wide PCR array, using ribosomal rRNA for normalization and as an internal control. Fold activation relative to the uninduced Mut-P-treated sample (not induced: Dox -) was determined and a heatmap for KSHV lytic gene expression was generated (Fig. 3a). […] Immunoblotting was used to confirm the induction of lytic replication by Dox based on exogenous K-Rta protein (Flag-K-Rta) and the expression of two other KSHV lytic proteins (ORF57 and K-bZIP) along with actin and KSHV LANA protein as controls for equal loading and similar viral copy numbers in samples, respectively (Fig. 3b).
(§2) Fig. 3 Effects of VGN50 on KSHV gene transcription and VGN50 binding with SWI/SNF components. a KSHV qRT-PCR array analysis was used to study effects of VGN50 on KSHV gene transcription in a genome-wide manner. Uninduced (−; no doxycycline added) or dox-induced (+; 1 μg/ml) cells were treated with VGN50 or the mutant peptide (Mut-P) at a concentration of 24 μM. Samples were collected at 24 h post-treatment. Expression in uninduced cells was set as 1 for each viral gene and expression shown as fold activation relative to no-Dox samples. Selected cellular genes were also included in the PCR array for comparison. 18S ribosomal RNA was used as an internal control. b KSHV protein expression. Immunoblotting was performed to confirm both endogenous and exogenous K-Rta expression before (not induced) and after induction by Dox treatment (Dox-induced). Latent KSHV protein LANA and actin were used as controls for KSHV copy number (LANA) and loading (actin), respectively. Protein samples were collected 48-h post Dox incubation. c KSHV reactivation by VGN50 incubation. BCBL-1 and BC-1 cell lines were treated with VGN50 (16 μM concentration) and total RNA harvested at 24 h post treatment. KSHV PAN RNA expression was examined by qRT-PCR and relative expression over 18S rRNA is shown. Data are presented as mean ± SD (n = 3). d Purification of recombinant SWI/SNF components. SDS-PAGE analysis of five SWI/SNF components individually prepared from baculovirus-infected Sf9 cells. e A schematic illustration of ELISA assay to evaluate VGN50 and SWI/SNF interaction. f Analysis of VGN50 binding to SWI/SNF components by ELISA. Increasing concentrations of biotin-conjugated VGN50 or Mut-P were incubated in duplicate in an ELISA plate coated with each SWI/SNF component. Peptide binding measured as OD values at 450 nm are shown. Mean OD values were compared between the VGN50 and Mut-P in each concentration using unpaired t-test. **p < 0.01, *p < 0.05, NS no significance. Data are presented as mean ± SD with duplicated samples and repeated three times with different purified protein preps.

KSHV PAN RNA in BC-1 = experiment: KSHV PAN RNA qRT-PCR (reactivation); type: cell-based; settings: BC-1, 16 μM, 24 h
Experimental: as §1, §2

[2] = values are 2^-ddCT (fold vs MT ND)
[3] = values are 2^-ddCT (fold vs MT ND), listed as MT

Structure (SMILES): CC(C)C[C@H](NC(=O)CCNC(=O)[C@H](CCCNC(=N)N)NC(=O)[C@H](CCCNC(=N)N)NC(=O)[C@H](CCCNC(=N)N)NC(=O)[C@H](CCCN)NC(=O)[C@H](CCCNC(=N)N)NC(=O)[C@H](CCCNC(=N)N)NC(=O)[C@H](CCCCN)NC(=O)[C@H](CCCCN)NC(=O)[C@H](N)CCCNC(=N)N)C(=O)N[C@@H](CO)C(=O)N[C@@H](CO)C(=O)N[C@@H](C)C(=O)N[C@@H](C)C(=O)N[C@@H](C)C(=O)NCC(=O)N[C@@H](CC(C)C)C(=O)N[C@@H](Cc1ccc(O)cc1)C(=O)N[C@@H](CCC(N)=O)C(=O)N[C@@H](CC(C)C)C(=O)N[C@@H](CC(=O)O)C(=O)N[C@H](C(=O)O)[C@@H](C)O [Mt-P] (H-[dR]KKRR[Orn]RRR[βAla]LSSAAAGLYQLDT-OH; N-terminus and C-terminus assumed)
- IL- 6 ddCT (vs 18s and MT ND) [1]: -2.234
- IL- 10 ddCT (vs 18s and MT ND) [1]: 0.213
- ORF21 fold vs MT ND (headed ddCT) [1]: 10.438
- ORF 50 k-kta fold vs MT ND (headed ddCT) [1]: 158.652
- k 2 fold vs MT ND (headed ddCT) [1]: 197.507
- K 9 fold vs MT ND (headed ddCT) ([1]; listed as MT): 11.999 and 11.9991
- K 10 fold vs MT ND (headed ddCT) ([1]; listed as MT): 11.665 and 11.6651
- ORF2 fold vs MT ND (headed ddCT) ([1]; listed as MT): 35.093 and 35.0927
- ORF4 fold vs MT ND (headed ddCT) ([1]; listed as MT): 46.543 and 46.5425
- ORF6 fold vs MT ND (headed ddCT) ([1]; listed as MT): 13.632 and 13.6318
- ORF7 fold vs MT ND (headed ddCT) ([1]; listed as MT): 12.162 and 12.1623
- ORF8 fold vs MT ND (headed ddCT) ([1]; listed as MT): 10.223 and 10.2233
- ORF9 fold vs MT ND (headed ddCT) ([1]; listed as MT): 6.076
- ORF11 fold vs MT ND (headed ddCT) ([1]; listed as MT): 18.177 and 18.1766
- ORF16 fold vs MT ND (headed ddCT) ([1]; listed as MT): 8.699 and 8.6991
- ORF17 fold vs MT ND (headed ddCT) ([1]; listed as MT): 6.815
- ORF18 fold vs MT ND (headed ddCT) ([1]; listed as MT): 4.417
- ORF19 fold vs MT ND (headed ddCT) ([1]; listed as MT): 8.897
- ORF 20 fold vs MT ND (headed ddCT) ([1]; listed as MT): 5.481
- ORF22.1 fold vs MT ND (headed ddCT) ([1]; listed as MT): 6.976
- ORF23 fold vs MT ND (headed ddCT) ([1]; listed as MT): 4.718
- ORF24 fold vs MT ND (headed ddCT) ([1]; listed as MT): 6.384
- ORF 25 fold vs MT ND (headed ddCT) ([1]; listed as MT): 4.629
- ORF26 fold vs MT ND (headed ddCT) ([1]; listed as MT): 6.591
- ORF27 fold vs MT ND (headed ddCT) ([1]; listed as MT): 19.313 and 19.3133
- ORF28 fold vs MT ND (headed ddCT) ([1]; listed as MT): 5.046
- ORF29 fold vs MT ND (headed ddCT) ([1]; listed as MT): 22.418 and 22.4181
- ORF30 fold vs MT ND (headed ddCT) ([1]; listed as MT): 5.617
- ORF31 fold vs MT ND (headed ddCT) ([1]; listed as MT): 9.188
- ORF32 fold vs MT ND (headed ddCT) ([1]; listed as MT): 3.227
- ORF33 fold vs MT ND (headed ddCT) ([1]; listed as MT): 10.461 and 10.4609
- ORF34 fold vs MT ND (headed ddCT) ([1]; listed as MT): 6.891
- ORF35 fold vs MT ND (headed ddCT) ([1]; listed as MT): 7.441
- ORF36 fold vs MT ND (headed ddCT) ([1]; listed as MT): 21.557 and 21.5571
- ORF37 fold vs MT ND (headed ddCT) ([1]; listed as MT): 14.520 and 14.5196
- ORF38 fold vs MT ND (headed ddCT) ([1]; listed as MT): 28.906 and 28.9062
- ORF39 fold vs MT ND (headed ddCT) ([1]; listed as MT): 11.635 and 11.6345
- ORF40 fold vs MT ND (headed ddCT) ([1]; listed as MT): 4.674
- ORF41 fold vs MT ND (headed ddCT) ([1]; listed as MT): 21.065 and 21.0654
- ORF42 fold vs MT ND (headed ddCT) ([1]; listed as MT): 3.993
- ORF43 fold vs MT ND (headed ddCT) ([1]; listed as MT): 8.726
- ORF44 fold vs MT ND (headed ddCT) ([1]; listed as MT): 33.337 and 33.3373
- ORF45 fold vs MT ND (headed ddCT) ([1]; listed as MT): 53.618 and 53.6182
- ORF 46 fold vs MT ND (headed ddCT) ([1]; listed as MT): 6.457
- ORF 47 fold vs MT ND (headed ddCT) ([1]; listed as MT): 62.278 and 62.2783
- ORF48 fold vs MT ND (headed ddCT) ([1]; listed as MT): 31.118 and 31.1177
- ORF49 fold vs MT ND (headed ddCT) ([1]; listed as MT): 16.390 and 16.3905
- ORF52 fold vs MT ND (headed ddCT) ([1]; listed as MT): 27.531 and 27.5312
- ORF53 fold vs MT ND (headed ddCT) ([1]; listed as MT): 16.215 and 16.2146
- ORF54 fold vs MT ND (headed ddCT) ([1]; listed as MT): 10.079 and 10.0788
- ORF55 fold vs MT ND (headed ddCT) ([1]; listed as MT): 10.827 and 10.8272
- ORF56 fold vs MT ND (headed ddCT) ([1]; listed as MT): 13.04
- ORF57 fold vs MT ND (headed ddCT) ([1]; listed as MT): 22.128 and 22.1283
- ORF70 fold vs MT ND (headed ddCT) ([1]; listed as MT): 15.204 and 15.2038
- T1.5 ori RNA fold vs MT ND (headed ddCT) ([1]; listed as MT): 26.465 and 26.4646
- k 1 fold vs MT ND (headed ddCT) ([1]; listed as MT): 7.768
- k 3 fold vs MT ND (headed ddCT) ([1]; listed as MT): 12.567 and 12.5669
- k 4 fold vs MT ND (headed ddCT) ([1]; listed as MT): 33.463 and 33.4629
- k 6 -2 fold vs MT ND (headed ddCT) ([1]; listed as MT): 13.375 and 13.3749
- k 7 real fold vs MT ND (headed ddCT) ([1]; listed as MT): 14.740 and 14.7397
- pan set 2 fold vs MT ND (headed ddCT) ([1]; listed as MT): 11.431 and 11.4312
- EGFP ddCT (vs 18s and MT ND), second block [1, 2]: 2.182
- IL- 6 ddCT (vs 18s and MT ND), second block [1, 2]: 4.704
- ORF67 ddCT (vs 18s and MT ND), second block [1, 2]: 1.460
- ORF68 ddCT (vs 18s and MT ND), second block [1, 2]: 3.433
- ORF74 ddCT (vs 18s and MT ND), second block [1, 2]: 1.662
- k 14 ddCT (vs 18s and MT ND), second block [1, 2]: 1.713
- IL- 10 ddCT (vs 18s and MT ND), second block [1, 3]: 0.863 and 0.8629
- K 11 ddCT (vs 18s and MT ND), second block [1, 3]: 85.514 and 85.5135
- K 12 ddCT (vs 18s and MT ND), second block [1, 3]: 1.587
- K 15 ddCT (vs 18s and MT ND), second block [1, 3]: 1.316
- ORF 58 ddCT (vs 18s and MT ND), second block [1, 3]: 7.125
- ORF59 ddCT (vs 18s and MT ND), second block [1, 3]: 3.052
- ORF60 ddCT (vs 18s and MT ND), second block [1, 3]: 1.439
- ORF61 ddCT (vs 18s and MT ND), second block [1, 3]: 2.555
- ORF 62 ddCT (vs 18s and MT ND), second block [1, 3]: 2.303
- ORF63 ddCT (vs 18s and MT ND), second block [1, 3]: 4.399
- ORF64 ddCT (vs 18s and MT ND), second block [1, 3]: 5.462 and 5.4617
- ORF65 ddCT (vs 18s and MT ND), second block [1, 3]: 2.091
- ORF66 ddCT (vs 18s and MT ND), second block [1, 3]: 6.232
- ORF69 ddCT (vs 18s and MT ND), second block [1, 3]: 3.398
- ORF71 ddCT (vs 18s and MT ND), second block [1, 3]: 6.849
- ORF72 ddCT (vs 18s and MT ND), second block [1, 3]: 2.075
- ORF 73 ddCT (vs 18s and MT ND), second block [1, 3]: 1.648
- ORF75 ddCT (vs 18s and MT ND), second block [1, 3]: 1.427
- T0.7 #1 ddCT (vs 18s and MT ND), second block [1, 3]: 5.275
- T0.7 #2 ddCT (vs 18s and MT ND), second block [1, 3]: 2.071
- T1.5 #2 ddCT (vs 18s and MT ND), second block [1, 3]: 13.571 and 13.5709
- VIRF3 ddCT (vs 18s and MT ND), second block [1, 3]: 5.775
- KSHV PAN RNA relative expression over 18S rRNA (KSHV PAN RNA in BC-1; replicate 1): 1.419e-5
- KSHV PAN RNA relative expression over 18S rRNA (KSHV PAN RNA in BC-1; replicate 2): 1.503e-5
- KSHV PAN RNA relative expression over 18S rRNA (KSHV PAN RNA in BC-1; replicate 3): 1.204e-5
